From patent US8748111B2, “Multiplexed olfactory receptor-based microsurface plasmon polariton detector” (Massachusetts Institute of Technology, priority 2008, dated 2014)
“And” between values parts separate entries of the source, which are not always exact repeats. Identical values can stand only once. “Also recorded” adds a separate entry of the source.

Columns and labels:
hOR17-4 [1] = target: T1, hOR17-4 (Homo sapiens, UniProt P34982, R25Q); experiment: Intracellular calcium-ion mobility assay in induced HEK293S cells; format: cell-based; parameters: of which 969 by code for the 323 amino acid hOR17-4-GlyGly-rho1D4 protein; made in house; settings: for cytosolic Ca2+ response to odorant: Fura-Red
T1 sequence (P34982 with tags, fused parts or gaps R25Q): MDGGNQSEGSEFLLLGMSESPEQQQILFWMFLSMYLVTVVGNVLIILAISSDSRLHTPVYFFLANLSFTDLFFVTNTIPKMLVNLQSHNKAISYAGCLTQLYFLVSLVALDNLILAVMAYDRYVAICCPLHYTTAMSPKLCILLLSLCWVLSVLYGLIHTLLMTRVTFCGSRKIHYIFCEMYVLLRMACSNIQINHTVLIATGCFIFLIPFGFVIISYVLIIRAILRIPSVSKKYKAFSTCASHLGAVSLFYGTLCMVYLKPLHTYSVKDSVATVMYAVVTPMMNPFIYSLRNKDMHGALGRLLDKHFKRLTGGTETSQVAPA
Experimental: To determine if receptors expressed at the surface of induced HEK293S rho5 cells was functional, we performed calcium-influx assays. In our heterologous HEK293S system, olfactory receptors can signal through the inositol triphosphate (IP3) pathway to release intracellular Ca2+, using the “promiscuous” G-protein Gαq.
HEK293S rho5 cells were seeded and grown on glass coverslips until they reached 80-90% confluency. Expression of hOR17-4 was then induced with media containing tetracycline (1 μg/ml) for 48 hours. Cells were then washed with PBS and loaded with the calcium sensitive dye Fluo-3 (Invitrogen) according to the manufacturers instructions. Coverslips were then mounted and visualized using time-lapse confocal microscopy. Experiments were conducted in PBS and odorant stocks were added by hand using a pipettor to final concentrations between 1-100 μM. Both specific and non-specific odorants were tested. As an additional control to test whether cells could increase internal calcium levels, 1 mM ATP was added.
The functional activity and specificity of hOR17-4 was probed in heterologous HEK293S cells by monitoring intracellular calcium-ion concentrations using time-lapse confocal microscopy (19). In our HEK293S cells, olfactory receptors can signal through the inositol triphosphate (IP3) pathway to release intracellular Ca^2+ from the ER, mediated by the “promiscuous” G-protein Gαq. Induced cells responded to the specific odorant bourgeonal at concentrations as low as 1 μM (FIG. 28). […] Importantly, nearly 100% of the cells were responsive to bourgeonal due to the stable-inducible nature of this system, a vast improvement over expression methods that relied on transient transfection with less than 5% of cells being responsive (3).
hOR17-4 expression in the stable HEK293S cell line was induced by 48-hour incubation in DMEM/F12 medium with GlutaMAX, supplemented with 1 μg/ml tetracycline. Then cells were loaded at 37° C. for 30 min with […] Fura-Red-AM (Molecular Probes) in serum-free DMEM/F12 medium and were subsequently washed with PBS and incubated in DMEM/F12 medium containing 10% FCS for 30 min to allow complete hydrolysis of intracellular Fura-Red-AM. Cytosolic Ca^2+ responses were recorded by confocal fluorescence microscopy (Zeiss LSM 510) using a water immersion objective (Zeiss Achroplan 63×, NA 1.2). Excitation was at 488 nm (Ar^+ laser); the 650 nm long pass emission filter was used to image Fura-Red at a rate of 1 image per second. Stock solutions of the tested odorants were prepared freshly in DMSO and diluted 1000-fold into PBS to give the desired concentrations.

hOR17-4 [2] = target: T1, hOR17-4; experiment: Surface plasmon resonance (Biacore A100) odorant binding assay, detergent-solubilized receptor from HEK293S cells; parameters: of which 969 by code for the 323 amino acid hOR17-4-GlyGly-rho1D4 protein; made in house; lysate supernatant captured on the chip; settings: not rigorously determined due to low odorant solubility above 40 μM
Excerpt: First, the rho1D4 mAb was covalently attached to the dextran surface of a Biacore CM4 chip using standard amine-coupling chemistry. The hOR17-4 receptor protein was then non-covalently captured on the antibody via its C-terminal rho tag (TETSQVAPA (SEQ ID NO: 50)). Odorant ligands were then applied and odorant binding detected in real time via the mass-based refractive index change. […] Low affinity Biacore data is typically characterized by fast on- and off-rates, where curvature in the association and dissociation phase may not be observable. […] However, the sensorgram data shown reinforces the prediction of low, micromolar affinities for the two odorants.
All odorant binding experiments were performed at 25° C. on a Biacore™ A100 (GE Healthcare), which has a parallel flow configuration, allowing assay development (e.g., solubilization conditions) to be tested and optimized in parallel and multiplexed format. The sensor chip CM4, amine-coupling kit, HBS (10 mM Hepes, 0.15 M NaCl, pH 7.4) and PBS were from GE Healthcare. The detailed protocol (see Supporting Information) was adapted, with several key modifications, from that previously reported by Kaiser et al. (25). […]

hOR17-4 [3] = target: T2, hOR17-4 (Homo sapiens, UniProt P34982); experiment: Surface plasmon resonance (Biacore T100) odorant binding assay, cell-free produced receptor
T2 construct: made in house; host or cells: wheat germ cell-free extract (Roche RTS Wheat Germ CECF kit)
T2 sequence (P34982 1-312): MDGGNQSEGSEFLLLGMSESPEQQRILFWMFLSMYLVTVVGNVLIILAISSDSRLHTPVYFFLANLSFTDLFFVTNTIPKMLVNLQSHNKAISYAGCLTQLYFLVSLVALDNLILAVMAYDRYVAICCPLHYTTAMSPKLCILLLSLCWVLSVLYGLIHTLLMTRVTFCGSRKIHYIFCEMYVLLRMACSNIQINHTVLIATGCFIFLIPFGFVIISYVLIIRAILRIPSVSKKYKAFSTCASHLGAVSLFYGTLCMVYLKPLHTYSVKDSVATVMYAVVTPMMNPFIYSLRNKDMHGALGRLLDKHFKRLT
Experimental: All odorant binding experiments were performed on a Biacore™ T100 (GE Healthcare, Uppsala, Sweden) at 25° C. The sensor chip CM4, amine coupling kit, HBS (10 mM Hepes, 0.15 M NaCl, pH 7.4) and PBS were from (GE Healthcare, Uppsala, Sweden).
A anti His-tag antibody (R&D Systems, Minneapolis, Minn., USA) at 5 μg/ml in 10 mM sodium acetate pH 4.75 was immobilized onto a series S sensor chip using standard amine-coupling chemistry in HBS running buffer at 10 μl/min (33). The amount of coupled antibody was about 13000 RU. Control surfaces were prepared similarly without protein derivatization and utilized as a reference surfaces for compound binding experiments. Cell-free lysate containing the expressed olfactory receptor was centrifuged for […] at 14000×g at 4° C., to remove larger particles. The supernatant, containing about 0.6 mg/ml olfactory receptor, was immediately captured on the surface plasmon resonance (SPR) chip using PBS and 3% (v/v) DMSO as running buffer at 10 μl/min. […] A 30 sec pulse of coupling reagents was injected to achieve the stable baseline needed for the kinetic assay.
Fresh odorant undecanal solutions were made as follows. Pure odorant was diluted in DMSO to 0.5 M. This solution was diluted 33.3 times in PBS to obtain a […] odorant solution in running buffer with 3% (v/v) DMSO. […]

[4] = tetracycline-induced HEK293S cells

| cytosolic Ca2+ response to odorant (hOR17-4 [1]; [4]) | equilibrium dissociation constant (hOR17-4 [2]) | SMILES | further results |
| --- | --- | --- | --- |
| – | low micromolar range | CC(C=O)Cc1ccc(C(C)(C)C)cc1 (stereo not shown) [lilial] | – |
| No response | – | CCCCCCCC=O [octanal] | – |

Continued, molecule first:

| SMILES | cytosolic Ca2+ response to odorant (hOR17-4 [1]; [4]) | equilibrium dissociation constant (hOR17-4 [2]) | further results |
| --- | --- | --- | --- |
| C/C=C/c1ccc(OC)cc1 [anithole] | No response | – | – |
| CC(C)(C)c1ccc(CCC=O)cc1 [bourgeonal] | transient Ca^2+ signaling | – | cells responsive to odorant (hOR17-4 [1]; stable-inducible HEK293S cells): ~100%; lowest odorant concentration giving a Ca2+ response (hOR17-4 [1]; tetracycline-induced HEK293S cells, confocal microscopy): ≤ 1 µM |
| CCc1ccc(CC(C)(C)C=O)cc1 [floralozone] | – | low micromolar range | – |
| CCCCCCCCCCC=O [undecanal] | – | – | inhibition of bourgeonal-induced hOR17-4 activation (hOR17-4 [1]; preincubation and co-application of 100 μM with bourgeonal 100 μM): Odorant response could be blocked; also recorded: inhibited hOR17-4 activation by bourgeonal; Kd (hOR17-4 [3]; equilibrium binding responses vs concentration fitted to a simple binding isotherm, 25° C., 3% DMSO, read-out: affinity constant, KD): 22 µM and ~22 µM; dose response binding (RU) (hOR17-4 [3]; injections at 1.2, 3.7, 11, 33 and 100 uM): binding response increases by increasing odorant concentration |
